The values below are quoted from earlier work in patent US9643990B2, “Non-caloric sweeteners and methods for synthesizing” (Conagen Inc., priority 2014, dated 2017).

For the data set the following is noted: background statement, no method given.
`C=C1C[C@@]23CC[C@H]4[C@@](C)(CCC[C@@]4(C)C(=O)O[C@@H]4O[C@H](CO)[C@@H](O)[C@H](O)[C@H]4O)[C@@H]2CC[C@]1(O[C@@H]1O[C@H](CO)[C@@H](O)[C@H](O)[C@H]1O[C@@H]1O[C@H](CO)[C@@H](O)[C@H](O)[C@H]1O)C3` [stevioside, Stevioside]: the “sweetness relative to sucrose” value is reported as 100-150 times sweeter than sucrose.
With Dulcoside A, the “sweetness relative to sucrose” value was “about 30 times sweeter than sucrose”.
Rebaudioside C: the “sweetness relative to sucrose” value is recorded as 40-60 times sweeter than sucrose.
